According to the supplement of paper PMC10307832:

Assays:
Test in all cases: relative viability (nuclei count vs DMSO), 5 days (fraction); higher = more cells survive
Ponatinib + Tozasertib = compound: Cc1ccc(C(=O)Nc2ccc(CN3CCN(C)CC3)c(C(F)(F)F)c2)cc1C#Cc1cnc2cccnn12 [Ponatinib] + Cc1cc(Nc2cc(N3CCN(C)CC3)nc(Sc3ccc(NC(=O)C4CC4)cc3)n2)n[nH]1 [Tozasertib] (partner 0.1 µM)
Method in brief: (§1)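 Lung cancer cell lines were seeded in 1536-well plates and dosed by pin tool the next day, with either a single drug or a fixed anchor-drug dose combined with five library-drug doses (not always all listed) spaced in √10 steps. Five days later, one step fixed the cells and stained their nuclei (final 0.05% Triton X-100, 1% formaldehyde, 1 ug/ml Hoechst), and nuclei were counted on 4× images. Relative viability is the nuclei count in treated wells divided by the count in vehicle wells, and each value is the median of duplicate plates.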

Ponatinib + Bortezomib = compound: Cc1ccc(C(=O)Nc2ccc(CN3CCN(C)CC3)c(C(F)(F)F)c2)cc1C#Cc1cnc2cccnn12 [Ponatinib] + CC(C)C[C@H](NC(=O)[C@H](Cc1ccccc1)NC(=O)c1cnccn1)B(O)O [Bortezomib] (partner 0.002 µM)
Method in brief: as §1

Ponatinib + Lapatinib = compound: Cc1ccc(C(=O)Nc2ccc(CN3CCN(C)CC3)c(C(F)(F)F)c2)cc1C#Cc1cnc2cccnn12 [Ponatinib] + CS(=O)(=O)CCNCc1ccc(-c2ccc3ncnc(Nc4ccc(OCc5cccc(F)c5)c(Cl)c4)c3c2)o1 [Lapatinib] (partner 2 µM)
Method in brief: as §1

Ponatinib + Linsitinib = compound: Cc1ccc(C(=O)Nc2ccc(CN3CCN(C)CC3)c(C(F)(F)F)c2)cc1C#Cc1cnc2cccnn12 [Ponatinib] + C[C@]1(O)C[C@@H](c2nc(-c3ccc4ccc(-c5ccccc5)nc4c3)c3c(N)nccn32)C1 [Linsitinib] (partner 1 µM)
Method in brief: as §1

Ponatinib + Olaparib = compound: Cc1ccc(C(=O)Nc2ccc(CN3CCN(C)CC3)c(C(F)(F)F)c2)cc1C#Cc1cnc2cccnn12 [Ponatinib] + O=C(c1cc(Cc2n[nH]c(=O)c3ccccc23)ccc1F)N1CCN(C(=O)C2CC2)CC1 [Olaparib] (partner 8 µM)
Method in brief: as §1

Cell Line | relative viability (Ponatinib + Tozasertib; first compound 0.002 µM) | relative viability (Ponatinib + Tozasertib; first compound 0.006325 µM) | relative viability (Ponatinib + Tozasertib; first compound 0.06325 µM) | relative viability (Ponatinib + Tozasertib; first compound 0.2 µM) | relative viability (Ponatinib + Bortezomib; first compound 0.002 µM) | relative viability (Ponatinib + Bortezomib; first compound 0.006325 µM) | relative viability (Ponatinib + Bortezomib; first compound 0.06325 µM) | relative viability (Ponatinib + Bortezomib; first compound 0.2 µM) | relative viability (Ponatinib + Lapatinib; first compound 0.002 µM) | relative viability (Ponatinib + Lapatinib; first compound 0.006325 µM) | relative viability (Ponatinib + Lapatinib; first compound 0.06325 µM) | relative viability (Ponatinib + Lapatinib; first compound 0.2 µM) | relative viability (Ponatinib + Linsitinib; first compound 0.002 µM) | relative viability (Ponatinib + Linsitinib; first compound 0.006325 µM) | relative viability (Ponatinib + Linsitinib; first compound 0.06325 µM) | relative viability (Ponatinib + Linsitinib; first compound 0.2 µM) | relative viability (Ponatinib + Olaparib; first compound 0.002 µM) | relative viability (Ponatinib + Olaparib; first compound 0.006325 µM) | relative viability (Ponatinib + Olaparib; first compound 0.06325 µM) | relative viability (Ponatinib + Olaparib; first compound 0.2 µM)
EMC-BAC-2 | 0.285 | 0.275 | 0.277 | 0.239 | 0.967 | 1.02 | 1.06 | 1.04 | 0.797 | 0.852 | 0.918 | 0.806 | 0.82 | 0.824 | 0.914 | 0.776 | 0.434 | 0.455 | 0.482 | 0.398
LU99A | 0.227 | 0.293 | 0.251 | 0.263 | 1.14 | 1.07 | 1.21 | 1.24 | 0.98 | 1.13 | 0.951 | 0.868 | 0.5 | 0.501 | 0.611 | 0.527 | 0.259 | 0.246 | 0.255 | 0.255
ABC-1 | 0.213 | 0.147 | 0.141 | 0.204 | 0.347 | 0.286 | 0.299 | 0.283 | 1.1 | 1.17 | 1.2 | 0.864 | 1.07 | 0.881 | 0.794 | 0.973 | 0.893 | 0.776 | 0.776 | 0.693
NCI-H2405 | 0.728 | 0.809 | 0.711 | 0.681 | 0.931 | 1.05 | 0.944 | 0.93 | 0.928 | 1.03 | 1.08 | 0.877 | 0.98 | 0.958 | 0.903 | 0.712 | 0.784 | 0.796 | 0.95 | 0.776
NCI-H1993 | 0.639 | 0.635 | 0.582 | 0.555 | 1.11 | 1.15 | 1.4 | 1.23 | 0.885 | 0.78 | 0.872 | 0.872 | 0.761 | 0.763 | 0.742 | 0.819 | 1.01 | 1.01 | 1.16 | 1.12
PC-14 | 0.527 | 0.628 | 0.609 | 0.472 | 0.846 | 0.944 | 1.02 | 0.875 | 0.313 | 0.363 | 0.384 | 0.386 | 0.927 | 0.91 | 1.13 | 1.01 | 0.334 | 0.359 | 0.347 | 0.284
HARA | 0.0958 | 0.111 | 0.0906 | 0.0762 | 1.06 | 1.1 | 1.21 | 0.861 | 0.88 | 0.887 | 0.406 | 0.378 | 0.916 | 0.916 | 0.976 | 0.944 | 0.757 | 0.825 | 0.777 | 0.874
NCI-H2087 | 0.259 | 0.237 | 0.21 | 0.155 | 0.57 | 0.566 | 0.74 | 0.688 | 0.708 | 0.781 | 0.876 | 0.672 | 0.632 | 0.761 | 0.761 | 0.893 | 0.514 | 0.609 | 0.635 | 0.497
NCI-H1437 | 0.363 | 0.419 | 0.411 | 0.393 | 0.572 | 0.681 | 0.608 | 0.66 | 0.742 | 0.848 | 0.885 | 0.758 | 0.999 | 1.05 | 1.05 | 0.915 | 0.598 | 0.595 | 0.654 | 0.623
NCI-H661 | 0.36 | 0.345 | 0.351 | 0.368 | 0.714 | 0.88 | 0.962 | 0.63 | 0.437 | 0.523 | 0.592 | 0.361 | 0.54 | 0.598 | 0.692 | 0.565 | 0.724 | 0.704 | 0.833 | 0.737
COR-L23 | 0.209 | 0.213 | 0.171 | 0.142 | 0.862 | 0.875 | 0.818 | 0.8 | 0.79 | 0.931 | 0.914 | 0.781 | 0.9 | 0.826 | 0.889 | 0.741 | 0.277 | 0.349 | 0.335 | 0.303
COR-L 105 | 0.304 | 0.343 | 0.372 | 0.316 | 0.819 | 0.787 | 1.01 | 0.999 | 0.385 | 0.369 | 0.374 | 0.347 | 0.944 | 0.875 | 1.39 | 1.04 | 0.711 | 0.709 | 0.723 | 0.747
201T | 0.924 | 1.01 | 0.966 | 0.926 | 1.06 | 1.11 | 1.13 | 1.08 | 1.04 | 1.03 | 1.09 | 1.02 | 0.958 | 1.11 | 1.06 | 1.01 | 0.833 | 0.853 | 0.878 | 0.806
